Values of other authors as cited in article PMC8513935.

Columns and labels:
[1] = experimental, compiled by the authors from the literature (the ESI cites the sources)
[2] = log P octanol/water from commercial databases, averaged (the ESI); settings: Octanol (wet), 25 C
[3] = derived by the authors as gas->solvent minus gas->water (a hypothetical dry solvent; the ESI), not a two-phase measurement

CCCCCCl
log K of transfer, gas to solvent ([1]; Di-n-butyl ether, 25 C): 3.51 log10 K
log K of transfer, gas to solvent ([1]; Hexadecane, 25 C): 3.22 log10 K
log K of transfer, gas to solvent ([1]; Hexane, 25 C): 3.5 log10 K
log K of transfer, gas to solvent ([1]; Propanone, 25 C): 3.56 log10 K
log K of transfer, gas to solvent ([1]; Tetrahydrofuran, 25 C): 4.16 log10 K
log K of transfer, gas to solvent ([1]; Water, 25 C): 0.05 log10 K
log K of transfer, water to solvent [2]: 3.11 log10 K
log K of transfer, water to solvent ([3]; Acetone, 25 C): 3.51 log10 K
log K of transfer, water to solvent ([3]; Di-n-butyl ether, 25 C): 3.46 log10 K
log K of transfer, water to solvent ([3]; Hexadecane, 25 C): 3.17 log10 K
log K of transfer, water to solvent ([3]; Hexane, 25 C): 3.45 log10 K
log K of transfer, water to solvent ([3]; Tetrahydrofuran, 25 C): 4.11 log10 K

CCCCCCC
log K of transfer, gas to solvent ([1]; 1,2-Dichloroethane, 25 C): 2.98 log10 K
log K of transfer, gas to solvent ([1]; 2-Methylpropan-1-ol, 25 C): 2.87 log10 K
log K of transfer, gas to solvent ([1]; 2-Methylpropan-2-ol, 25 C): 2.9 log10 K
log K of transfer, gas to solvent ([1]; 3-Methylbutan-1-ol, 25 C): 2.89 log10 K
log K of transfer, gas to solvent ([1]; Acetonitrile, 25 C): 2.35 log10 K
log K of transfer, gas to solvent ([1]; Butan-1-ol, 25 C): 2.88 log10 K
log K of transfer, gas to solvent ([1]; Butanone, 25 C): 3.03 log10 K
log K of transfer, gas to solvent ([1]; Butyronitrile, 25 C): 2.82 log10 K
log K of transfer, gas to solvent ([1]; CCl4, 25 C): 3.48 log10 K
log K of transfer, gas to solvent ([1]; Chlorobenzene, 25 C): 3.47 log10 K
log K of transfer, gas to solvent ([1]; Chloroform, 25 C): 3.39 log10 K
log K of transfer, gas to solvent ([1]; Cyclohexanone, 25 C): 2.95 log10 K
log K of transfer, gas to solvent ([1]; Di-n-butyl ether, 25 C): 3.38 log10 K
log K of transfer, gas to solvent ([1]; Dichloromethane, 25 C): 3.27 log10 K
log K of transfer, gas to solvent ([1]; Ethanol, 25 C): 2.71 log10 K
log K of transfer, gas to solvent ([1]; Hexadecane, 25 C): 3.17 log10 K
log K of transfer, gas to solvent ([1]; Hexan-1-ol, 25 C): 2.93 log10 K
log K of transfer, gas to solvent ([1]; Hexane, 25 C): 3.5 log10 K
log K of transfer, gas to solvent ([1]; Methanol, 25 C): 2.5 log10 K
log K of transfer, gas to solvent ([1]; Octan-1-ol, 25 C): 2.95 log10 K
log K of transfer, gas to solvent ([1]; Perfluoroalkane, 25 C): 2.25 log10 K
log K of transfer, gas to solvent ([1]; Propan-1-ol, 25 C): 2.74 log10 K
log K of transfer, gas to solvent ([1]; Propan-2-ol, 25 C): 2.74 log10 K
log K of transfer, gas to solvent ([1]; Propanone, 25 C): 2.81 log10 K
log K of transfer, gas to solvent ([1]; Propionitrile, 25 C): 2.67 log10 K
log K of transfer, gas to solvent ([1]; Tetrahydrofuran, 25 C): 3.34 log10 K
log K of transfer, gas to solvent ([1]; Toluene, 25 C): 3.33 log10 K
log K of transfer, gas to solvent ([1]; Water, 25 C): -1.96 log10 K
log K of transfer, water to solvent [2]: 4.5 log10 K
log K of transfer, water to solvent ([3]; 1,2-Dichloroethane, 25 C): 4.94 log10 K
log K of transfer, water to solvent ([3]; 2-Methylpropan-1-ol, 25 C): 4.83 log10 K
log K of transfer, water to solvent ([3]; 2-Methylpropan-2-ol, 25 C): 4.86 log10 K
log K of transfer, water to solvent ([3]; 3-Methylbutan-1-ol, 25 C): 4.85 log10 K
log K of transfer, water to solvent ([3]; Acetone, 25 C): 4.77 log10 K
log K of transfer, water to solvent ([3]; Acetonitrile, 25 C): 4.31 log10 K
log K of transfer, water to solvent ([3]; Butan-1-ol, 25 C): 4.84 log10 K
log K of transfer, water to solvent ([3]; Butanone, 25 C): 4.99 log10 K
log K of transfer, water to solvent ([3]; Butyronitrile, 25 C): 4.78 log10 K
log K of transfer, water to solvent ([3]; CCl4, 25 C): 5.44 log10 K
log K of transfer, water to solvent ([3]; Chlorobenzene, 25 C): 5.43 log10 K
log K of transfer, water to solvent ([3]; Chloroform, 25 C): 5.35 log10 K
log K of transfer, water to solvent ([3]; Cyclohexanone, 25 C): 4.91 log10 K
log K of transfer, water to solvent ([3]; Di-n-butyl ether, 25 C): 5.34 log10 K
log K of transfer, water to solvent ([3]; Dichloromethane, 25 C): 5.23 log10 K
log K of transfer, water to solvent ([3]; Ethanol, 25 C): 4.67 log10 K
log K of transfer, water to solvent ([3]; Hexadecane, 25 C): 5.13 log10 K
log K of transfer, water to solvent ([3]; Hexan-1-ol, 25 C): 4.89 log10 K
log K of transfer, water to solvent ([3]; Hexane, 25 C): 5.46 log10 K
log K of transfer, water to solvent ([3]; Methanol, 25 C): 4.46 log10 K
log K of transfer, water to solvent ([3]; Octan-1-ol(dry), 25 C): 4.91 log10 K
log K of transfer, water to solvent ([3]; Perfluoroalkane, 25 C): 4.21 log10 K
log K of transfer, water to solvent ([3]; Propan-1-ol, 25 C): 4.7 log10 K
log K of transfer, water to solvent ([3]; Propan-2-ol, 25 C): 4.7 log10 K
log K of transfer, water to solvent ([3]; Propionitrile, 25 C): 4.63 log10 K
log K of transfer, water to solvent ([3]; Tetrahydrofuran, 25 C): 5.3 log10 K
log K of transfer, water to solvent ([3]; Toluene, 25 C): 5.29 log10 K

CCCCCl
log K of transfer, gas to solvent ([1]; 1,2-Dichloroethane, 25 C): 3.25 log10 K
log K of transfer, gas to solvent ([1]; 2-Methylpropan-1-ol, 25 C): 2.73 log10 K
log K of transfer, gas to solvent ([1]; 2-Methylpropan-2-ol, 25 C): 2.71 log10 K
log K of transfer, gas to solvent ([1]; Butan-2-ol, 25 C): 2.73 log10 K
log K of transfer, gas to solvent ([1]; CCl4, 25 C): 3.16 log10 K
log K of transfer, gas to solvent ([1]; Chlorobenzene, 25 C): 3.19 log10 K
log K of transfer, gas to solvent ([1]; Decan-1-ol, 25 C): 2.69 log10 K
log K of transfer, gas to solvent ([1]; Di-n-butyl ether, 25 C): 3.01 log10 K
log K of transfer, gas to solvent ([1]; Diethyl Ether, 25 C): 3.21 log10 K
log K of transfer, gas to solvent ([1]; Hexadecane, 25 C): 2.72 log10 K
log K of transfer, gas to solvent ([1]; Hexane, 25 C): 2.95 log10 K
log K of transfer, gas to solvent ([1]; Octan-1-ol, 25 C): 2.72 log10 K
log K of transfer, gas to solvent ([1]; Propan-1-ol, 25 C): 2.63 log10 K
log K of transfer, gas to solvent ([1]; Propanone, 25 C): 3.12 log10 K
log K of transfer, gas to solvent ([1]; Water, 25 C): 0.12 log10 K
log K of transfer, water to solvent [2]: 2.64 log10 K
log K of transfer, water to solvent ([3]; 1,2-Dichloroethane, 25 C): 3.13 log10 K
log K of transfer, water to solvent ([3]; 2-Methylpropan-1-ol, 25 C): 2.61 log10 K
log K of transfer, water to solvent ([3]; 2-Methylpropan-2-ol, 25 C): 2.59 log10 K
log K of transfer, water to solvent ([3]; Acetone, 25 C): 3 log10 K
log K of transfer, water to solvent ([3]; Butan-2-ol, 25 C): 2.61 log10 K
log K of transfer, water to solvent ([3]; CCl4, 25 C): 3.04 log10 K
log K of transfer, water to solvent ([3]; Chlorobenzene, 25 C): 3.07 log10 K
log K of transfer, water to solvent ([3]; Decan-1-ol, 25 C): 2.57 log10 K
log K of transfer, water to solvent ([3]; Di-n-butyl ether, 25 C): 2.89 log10 K
log K of transfer, water to solvent ([3]; Diethyl Ether, 25 C): 3.09 log10 K
log K of transfer, water to solvent ([3]; Hexadecane, 25 C): 2.6 log10 K
log K of transfer, water to solvent ([3]; Hexane, 25 C): 2.83 log10 K
log K of transfer, water to solvent ([3]; Octan-1-ol(dry), 25 C): 2.6 log10 K
log K of transfer, water to solvent ([3]; Propan-1-ol, 25 C): 2.51 log10 K

CCCCCCCCCCCCCCCCO
log K of transfer, gas to solvent ([1]; Decan-1-ol, 25 C): 9.86 log10 K
log K of transfer, gas to solvent ([1]; Di-n-butyl ether, 25 C): 9.63 log10 K
log K of transfer, gas to solvent ([1]; Diethyl Ether, 25 C): 9.91 log10 K
log K of transfer, gas to solvent ([1]; Hexadecane, 25 C): 8.65 log10 K
log K of transfer, gas to solvent ([1]; Hexan-1-ol, 25 C): 9.93 log10 K
log K of transfer, gas to solvent ([1]; Octan-1-ol, 25 C): 9.9 log10 K
log K of transfer, gas to solvent ([1]; Propan-2-ol, 25 C): 10 log10 K
log K of transfer, gas to solvent ([1]; Water, 25 C): 2.02 log10 K
log K of transfer, water to solvent [2]: 7.32 log10 K
log K of transfer, water to solvent ([3]; Decan-1-ol, 25 C): 7.84 log10 K
log K of transfer, water to solvent ([3]; Di-n-butyl ether, 25 C): 7.61 log10 K
log K of transfer, water to solvent ([3]; Diethyl Ether, 25 C): 7.89 log10 K
log K of transfer, water to solvent ([3]; Hexadecane, 25 C): 6.63 log10 K
log K of transfer, water to solvent ([3]; Hexan-1-ol, 25 C): 7.92 log10 K
log K of transfer, water to solvent ([3]; Octan-1-ol(dry), 25 C): 7.88 log10 K
log K of transfer, water to solvent ([3]; Propan-2-ol, 25 C): 8.03 log10 K
